Results as given in US4065356A, “Production of antibiotic FR-02A (efrotomycin) by streptomyces lactamdurans” (priority 1977, dated 1977).
“Also recorded” adds a separate entry of the source.

Columns and labels:
Bacillus sp. 633 = experiment: Antibiotic Spectrum Profile, agar diffusion test; type: cell-based; details: 1 mg./ml., read-out: Diameters of Inhibition Zones
Method: To further characterize FR-02A in vitro, activity data for it was obtained using an antibiotic spectrum profile. The test involves applications of a droplet of antibiotic approximately 0.015 ml. on the surface of seeded complex agar plates. […] The results are reported in Table 1 in terms of mm. of inhibition zones.

M. arthritidis = experiment: in vitro activity; type: cell-based
S. aureus 3032 = experiment: Antibiotic Spectrum Profile, agar diffusion test; type: cell-based; details: Staphylococcus aureus, 1 mg./ml., read-out: Diameters of Inhibition Zones
solubility = type: physicochemical; details: water-immiscible organic solvents
coccidia [1] = experiment: chicken coccidiosis; type: in vivo; details: most prevalent types
[2] = tested on: Pseudomonas stutzeri (MB 1231); experiment: in vitro activity; type: cell-based
coccidia [3] = experiment: mouse coccidiosis; details: in vivo
[4] = tested on: Pseudomonas stutzeri (MB 2765); experiment: in vitro activity; type: cell-based
[5] = tested on: Klebsiella pneumoniae 1264; experiment: Antibiotic Spectrum Profile, agar diffusion test; type: cell-based; details: 1 mg./ml., read-out: Diameters of Inhibition Zones
species of Pasteurella = experiment: in vitro activity; type: cell-based
[6] = tested on: Corynebacterium pseudodiphtheriticum 261; experiment: Antibiotic Spectrum Profile, agar diffusion test; type: cell-based; details: 1 mg./ml., read-out: Diameters of Inhibition Zones
Strep. faecium 2820 = experiment: Antibiotic Spectrum Profile, agar diffusion test; type: cell-based; details: Enterococcus faecium, 1 mg./ml., read-out: Diameters of Inhibition Zones
Vibrio percolans 1272 = experiment: Antibiotic Spectrum Profile, agar diffusion test; type: cell-based; details: Comamonas terrigena, 1 mg./ml., read-out: Diameters of Inhibition Zones
Bordetella = experiment: in vitro activity; type: cell-based
Vibrio percolans = experiment: agar-diffusion bioassay using Vibrio percolans; type: cell-based; details: Comamonas terrigena; concentration of 200 μ/ml.; LH-20 product
Method: A 0.5 ml. solution of methanol containing 106 mg. of FR-02A obtained from Example 1 above is charged to a 75 ml. bed (1.25 cm. dia. × 56 cm. ht.) of Sephadex LH-20 gel in methanol (Pharmacia Fine Chemicals, Inc., Piscataway, N.J.). The column is developed with methanol. […] Fractions are bioassayed at a 1-10 dilution with 1/2 dia. paper discs on agar-diffusion assay plates seeded with Vibrio percolans. Zones of inhibition are obtained corresponding to the third mass peak (KD = 0.3) detected. The fractions corresponding to the third mass peak are combined and evaporated to yield 43 mg. of FR-02A.
The product when assayed in the above agar-diffusion bioassay using Vibrio percolans gives a 16 mm. zone of inhibition at a concentration of 200 μ/ml. The U.V. absorption in pH 7.0 phosphate buffer was: […]

[7] = tested on: S. aureus (res. Erythromycin) 1909; experiment: Antibiotic Spectrum Profile, agar diffusion test; type: cell-based; details: Staphylococcus aureus, 1 mg./ml., read-out: Diameters of Inhibition Zones
[8] = tested on: Pseudomonas aeruginosa (MB 3210); experiment: in vitro activity; type: cell-based
Streptococcusagalactiae = experiment: in vitro activity; type: cell-based
PPLO = PPLO in cattle; type: in vivo
coccidia [9] = experiment: activity against coccidia; type: cell-based
[10] = tested on: Streptococcus faecalis 753; experiment: Antibiotic Spectrum Profile, agar diffusion test; type: cell-based; details: Enterococcus faecalis, 1 mg./ml., read-out: Diameters of Inhibition Zones
E. acervulina = experiment: in vitro activity; type: cell-based
Proteus vulgaris = experiment: in vivo test in mice, Proteus vulgaris infection; details: infection IP, therapy IP, at time of infection and 6 hours later
Method: *Values in the table are expressed in mg./mouse. Both infections and
therapeutic doses of FR-02A were administered intraperitoneally. FR-02A
was administered at time of infection and again 6 hours later.

E. coli 60 = experiment: Antibiotic Spectrum Profile, agar diffusion test; type: cell-based; details: Escherichia coli, 1 mg./ml., read-out: Diameters of Inhibition Zones
[11] = tested on: Staphylococcus aureus (MB 108); experiment: in vitro activity; type: cell-based
Aerobacter aerogenes 835 = experiment: Antibiotic Spectrum Profile, agar diffusion test; type: cell-based; details: Klebsiella aerogenes, 1 mg./ml., read-out: Diameters of Inhibition Zones
gram-positive bacteria = experiment: antibacterial activity; type: cell-based
Erwinia auroseptica 1159 = experiment: Antibiotic Spectrum Profile, agar diffusion test; type: cell-based; details: 1 mg./ml., read-out: Diameters of Inhibition Zones
Proteus vulgaris 838 = experiment: Antibiotic Spectrum Profile, agar diffusion test; type: cell-based; details: 1 mg./ml., read-out: Diameters of Inhibition Zones
[12] = tested on: Vibrio percolans American Type Culture Collection (ATCC 8461); experiment: disc-plate assay, zone of inhibition; type: cell-based
Method: Assays were run by the disc-plate procedure using 3/8 inch filter paper discs. The assay plates were prepared using Difco nutrient agar plus 2.0 g./l. Difco yeast extract at 10 ml. per plate. An overnight growth of the assay organism, Vibrio percolans American Type Culture Collection (ATCC 8461) in nutrient broth plus 0.2% yeast extract was diluted in sterile saline solution to a suspension having 40% transmittance at a wave length of 660 mμ. This suspension was added at 20 ml./liter of medium prior to pouring the plates.
The assay plates were held at 4° C. until used (5 day maximum). Following the application of the antibiotic-saturated assay discs the plates were incubated at 28° C. for a period of from 16 to 24 hours. Zones of inhibition were read as mm. diameter. They were used to determine relative potencies or, when compared with a purified reference standard, the potency in μg./ml. Assays of FR-02A in fermentation broths, mycelia and suspended nutrient matter separated from fermentation broths and in broths free of solids were performed after extracting the FR-02A into a suitable solvent. […] When such an assay is performed in a quantitative fashion, from 50 to 100 μg./ml. of antibiotic can be detected.

E. coli (MB 1418) = experiment: in vitro activity; type: cell-based

Structure (SMILES): CC=CC=CC1OC(O)(C(CC)C(=O)NCC=CC=C(C)C(OC)C(C)C2OC(C=CC=CC=C(C)C(=O)c3c(O)ccn(C)c3=O)C(O)C2O)C(O)C(OC2OC(C)C(OC3OC(C)C(OC)C(O)C3OC)C(OC)C2O)C1(C)C (centres unmarked) [FR-02A, efrotomycin]
- zone of inhibition at 1000 µg/mL (Bacillus sp. 633): 18 mm
- in vitro activity (M. arthritidis): effective
- zone of inhibition at 1000 µg/mL (S. aureus 3032): 12 mm
- solubility in water-immiscible organic solvents (solubility): highly soluble
- efficacy against chicken coccidiosis (coccidia [1]): effective
- activity [2]: Activity was also found
- efficacy against mouse coccidiosis (coccidia [3]): effective
- activity [4]: Activity was also found
- zone of inhibition at 1000 µg/mL [5]: 16 mm
- in vitro activity (species of Pasteurella): effective
- zone of inhibition at 1000 µg/mL [6]: 27 mm
- zone of inhibition at 1000 µg/mL (Strep. faecium 2820): 20 mm
- zone of inhibition at 1000 µg/mL (Vibrio percolans 1272): 21 mm
- in vitro activity (Bordetella): effective
- zone of inhibition at 200 µg/mL (Vibrio percolans): 16 mm
- zone of inhibition at 1000 µg/mL [7]: 16 mm
- activity [8]: Activity was also found
- in vitro activity (Streptococcusagalactiae): effective
- efficacy against PPLO (PPLO): effective
- activity against coccidia (coccidia [9]): shows activity
- zone of inhibition at 1000 µg/mL [10]: 11 mm
- in vitro activity (E. acervulina): effective
- ED50 (Proteus vulgaris): 1.73 mg./mouse
- zone of inhibition at 1000 µg/mL (E. coli 60): 10 mm
- activity [11]: Activity was also found
- zone of inhibition at 1000 µg/mL (Aerobacter aerogenes 835): 13 mm
- activity against gram-positive bacteria (gram-positive bacteria): shows activity; also recorded: effective
- zone of inhibition at 1000 µg/mL (Erwinia auroseptica 1159): 12 mm
- zone of inhibition at 1000 µg/mL (Proteus vulgaris 838): 18 mm
- zone of inhibition at 200 µg/mL ([12]; Comamonas terrigena, ATCC8461, 200 μg./ml., 3/8 inch discs, read-out: zones of inhibition): 16 mm
- activity ([12]; Vibrio percolans (ATCC 8461)): Activity was also found
- activity (E. coli (MB 1418)): Activity was also found
